This test has as its target Induced myeloid leukemia cell differentiation protein Mcl-1 (Homo sapiens, UniProt Q07820). The experiment in a line: Binding affinity to MCL1 (unknown origin) assessed as inhibition of Mcl1-FAMbid protein-protein interaction after 1 min by fluorescence polarization assay. (In fluorescence polarisation assays a small probe gives low polarisation when free and higher when bound to something large.)

The structures appear in SMILES notation.

The Kd is the constant that tells how readily two partners part at equilibrium.

Chain of Induced myeloid leukemia cell differentiation protein Mcl-1 (Q07820 whole entry): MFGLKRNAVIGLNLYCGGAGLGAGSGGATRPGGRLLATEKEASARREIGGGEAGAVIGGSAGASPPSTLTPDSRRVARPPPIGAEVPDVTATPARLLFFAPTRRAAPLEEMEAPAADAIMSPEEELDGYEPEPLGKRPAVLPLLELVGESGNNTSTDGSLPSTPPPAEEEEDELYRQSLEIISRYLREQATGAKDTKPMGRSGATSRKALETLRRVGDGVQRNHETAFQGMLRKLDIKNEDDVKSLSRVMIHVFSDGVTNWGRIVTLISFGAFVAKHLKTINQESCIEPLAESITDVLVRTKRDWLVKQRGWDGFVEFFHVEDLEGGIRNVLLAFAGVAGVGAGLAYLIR

With `O=C(O)c1cc2ccccc2n1S(=O)(=O)c1ccc(OCc2cccc(Cl)c2)cc1`, the Kd turned out to be 480 nM.

(Values after ChEMBL document CHEMBL4433198, “Fragment-to-Lead Medicinal Chemistry Publications in 2017” (J Med Chem, 2019).)
